Laboratory results from US8343988B2, “Inhibitors of histone deacetylase” (Janssen Pharmaceutica, N.V, priority 2002, dated 2013).
Values after ≈ are worked out from the molar mass of the structure shown. Where two headings read alike, the source gives them in different places.

Key:
[1] = not given; remark: listed apart in the source
[2] = target: histone deacetylase (HeLa nuclear extracts); experiment: In vitro assay for inhibition of histone deacetylase; format: biochemical; details: [3H]acetylated histone H4 peptide substrate, 30 min
Protocol: The in vitro assay for inhibition of histone deacetylase (see example C.1) measures the inhibition of HDAC enzymatic activity obtained with the compounds of formula (I).
HeLa nuclear extracts (supplier: Biomol) were incubated at 60 μg/ml with 2×10^−8 M of radiolabeled peptide substrate. As a substrate for measuring HDAC activity a synthetic peptide, i.e. the amino acids 14-21 of histone H4, was used. The substrate is biotinylated at the NH2-terminal part with a 6-aminohexanoic acid spacer, and is protected at the COOH-terminal part by an amide group and specifically [^3H]acetylated at lysine 16. The substrate, biotin-(6-aminohexanoic)Gly-Ala-([^3H]-acetyl-Lys-Arg-His-Arg-Lys-Val-NH2), was added in a buffer containing 25 mM Hepes, 1 M sucrose, 0.1 mg/ml BSA and 0.01% Triton X-100 at pH 7.4. After 30 min the deacetylation reaction was terminated by the addition of HCl and acetic acid. (final concentration 0.035 mM and 3.8 mM respectively). After stopping the reaction, the free ^3H-acetate was extracted with ethylacetate. After mixing and centrifugation, the radioactivity in an aliquot of the upper (organic) phase was counted in a β-counter.
For each experiment, controls (containing HeLa nuclear extract and DMSO without compound), a blank incubation (containing DMSO but no HeLa nuclear extract or compound) and samples (containing compound dissolved in DMSO and HeLa nuclear extract) were run in parallel. […] The control sample represented 100% of substrate deactylation. For each sample the radioactivity was expressed as a percentage of the mean value of the controls. […] Herein the effects of test compounds are expressed as pIC50 (the negative log value of the IC50-value).

[3] = test system: A2780 ovarian carcinoma cells; experiment: Antiproliferative activity on A2780 cells (MTT); format: cell-based; details: Homo sapiens, 96 h, four days of incubation, read-out: Cellular activity pIC50 (converted)
Protocol: Cellular activity of the compounds of formula (I) was determined on A2780 tumour cells using a […] assay for cell toxicity or survival (Mosmann Tim, Journal of Immunological Methods 65: 55-63, 1983)(see example C.2).
All compounds tested were dissolved in DMSO and further dilutions were made in culture medium. Final DMSO concentrations never exceeded 0.1% (v/v) in cell proliferation assays. Controls contained A2780 cells and DMSO without compound and blanks contained DMSO but no cells. MTT was dissolved at 5 mg/ml in PBS. A glycine buffer comprised of 0.1 M glycine and 0.1 M NaCl buffered to pH 10.5 with NaOH (1 N) was prepared (all reagents were from Merck).
The human A2780 ovarian carcinoma cells (a kind gift from Dr. T. C. Hamilton [Fox Chase Cancer Centre, Pennsylvania, USA]) were cultured in RPMI 1640 medium supplemented with 2 mM L-glutamine, 50 μg/ml gentamicin and 10% fetal calf serum. Cells were routinely kept as monolayer cultures at 37° C. in a humidified 5% CO2 atmosphere. Cells were passaged once a week using a trypsin/EDTA solution at a split ratio of 1:40. All media and supplements were obtained from Life Technologies. Cells were free of mycoplasma contamination as determined using the Gen-Probe Mycoplasma Tissue Culture kit (supplier: BioMérieux).
Cells were seeded in NUNC™ 96-well culture plates (Supplier: Life Technologies) and allowed to adhere to the plastic overnight. Densities used for plating were 1500 cells per well in a total volume of 200 μl medium. After cell adhesion to the plates, medium was changed and drugs and/or solvents were added to a final volume of 200 μl. Following four days of incubation, medium was replaced by 200 μl fresh medium and cell density and viability was assessed using an MTT-based assay. To each well, 25 μl MTT solution was added and the cells were further incubated for 2 hours at 37° C. The medium was then carefully aspirated and the blue MTT-formazan product was solubilized by addition of 25 μl glycine buffer followed by 100 μl of DMSO. […] Within an experiment, the results for each experimental condition are the mean of 3 replicate wells. For initial screening purposes, compounds were tested at a single fixed concentration of 10^−6 M. For active compounds, the experiments were repeated to establish full concentration-response curves. For each experiment, controls (containing no drug) and a blank incubation (containing no cells or drugs) were run in parallel. The blank value was subtracted from all control and sample values. For each sample, the mean value for cell growth (in absorbance units) was expressed as a percentage of the mean value for cell growth of the control. […] Herein the effects of test compounds are expressed as pIC50 (the negative log value of the IC50-value).

[4] = Kinetic solubility in aqueous media; format: physicochemical; details: aqueous buffer, kinetic from dmso stock; phosphate citrate buffer pH 7.4, turbidity by nephelometer; read-out: Solubility Score
Protocol: Kinetic solubility in aqueous media measures the ability of a compound to stay in aqueous solution upon dilution (see example C.3).
DMSO-stock solutions are diluted with a single aqueous buffer solvent in 3 consecutive steps. For every dilution turbidity is measured with a nephelometer.
In the first dilution step, 10 μl of a concentrated stock-solution of the active compound, solubilized in DMSO (5 mM), was added to 100 μl phosphate citrate buffer pH 7.4 and mixed. In the second dilution step, an aliquot (20 μl) of the first dilution step was further dispensed in 100 μl phosphate citrate buffer pH 7.4 and mixed. Finally, in the third dilution step, a sample (20 μl) of the second dilution step was further diluted in 100 μl phosphate citrate buffer pH 7.4 and mixed. All dilutions were performed in 96-well plates. Immediately after the last dilution step the turbidity of the three consecutive dilution steps were measured with a nephelometer. Dilution was done in triplicate for each compound to exclude occasional errors. Based on the turbidity measurements a ranking is performed into 3 classes. Compounds with high solubility obtained a score of 3 and for this compounds the first dilution is clear. Compounds with medium solubility obtained a score of 2. For these compounds the first dilution is unclear and the second dilution is clear. […] The solubility of 6 compounds was measured.

Enzyme activity pIC50 [2]	IC50 [3] [nM]	SMILES	further results
–	–	CCC(C)n1nc(C)n(-c2ccc(N3CCCN(c4ccc(C(=O)NO)cc4)CC3)cc2)c1=O (stereo not drawn) (hydrate or solvate) [Co. No. 1]	melting point: 182 to 184 °C
–	–	O=C(NO)c1cnc(N2CCN(Cc3ccc(-c4ccc(CN5CCOCC5)cc4)o3)CC2)nc1 (hydrate or solvate) [Co. No. 9]	melting point: 140 °C
–	–	COc1cc(N)c(Cl)cc1C(=O)NC1CCN(CCCOc2ccc(F)cc2)CC1OC (stereo not drawn) [Cisapride]	% metabolism ([1]; human, 15 min, 5 μM): 45%
5.121	15000	CCC(C)n1nc(C)n(-c2ccc(N3CCCN(c4ccc(C(=O)NO)cc4)CC3)cc2)c1=O (stereo not drawn) [Co. No. 1]	solubility [4]: > 454 µM
6.377	9120	O=C(NO)c1ccc(N2CCN(Cc3ccccc3)CC2)cc1 [Co. No. 2]	solubility [4]: > 454 µM; melting point: 196 °C
7.28	964	O=C(NO)c1cnc(N2CCN(C3CCN(S(=O)(=O)c4ccc5ccccc5c4)CC3)CC2)nc1 [Co. No. 3]	solubility [4]: < 75.8 µM; melting point: 210 °C
7.306	658	O=C(NO)c1cnc(N2CCC(N3CCN(S(=O)(=O)c4ccc5ccccc5c4)CC3)CC2)nc1 [Co. No. 4]	solubility [4]: > 454 µM; melting point: 230 °C
8.035	153	O=C(NO)c1cnc(N2CCN(Cc3ccc(-c4ccc(CO)cc4)o3)CC2)nc1 [Co. No. 5]	solubility [4]: > 454 µM; melting point: 219 °C
8.148	59.3	O=C(NO)c1cnc(N2CCN(Cc3ccc4ccccc4c3)CC2)nc1 [Co. No. 6]	solubility [4]: > 454 µM; melting point: > 260 °C
7.952	444	O=C(NO)c1cnc(N2CCN(CCc3ccc4ccccc4c3)CC2)nc1 [Co. No. 7]	solubility [4]: > 454 µM; melting point: 209 °C
7.365	372	COc1cc2c(=O)n(CC3CCN(c4ncc(C(=O)NO)cn4)CC3)c(C)nc2c(OC)c1OC [Co. No. 8]	–
7.889	97.9	O=C(NO)c1cnc(N2CCN(Cc3ccc(-c4ccc(CN5CCOCC5)cc4)o3)CC2)nc1 [Co. No. 9]	solubility [4]: > 454 µM
7.427	658	O=C(NO)c1cnc(N2CCC(Cn3c(-c4ccccc4)nc4ccccc4c3=O)CC2)nc1 [Co. No. 10]	–
<5	–	O=C(NO)c1ccc(N2CCN(c3cccc(Cl)c3)CC2)c([N+](=O)[O-])c1 [compound 11]	–
>5	–	O=C(NO)c1ccc(N2CCN(CCCC(c3ccc(F)cc3)c3ccc(F)cc3)CC2)c([N+](=O)[O-])c1 [compound 12]	–
<5	–	O=C(NO)c1cc([N+](=O)[O-])ccc1N1CCN(c2ccccc2Cl)CC1 [compound 13]	–
<5	–	O=C(NO)c1cc([N+](=O)[O-])ccc1N1CCC(Cc2ccccc2)CC1 [compound 14]	–
>5	–	COc1ccccc1N1CCN(c2ccc(C(=O)NO)cc2[N+](=O)[O-])CC1 [compound 15]	–
5.698	–	O=C(NO)c1ccc(N2CCN(C3CCCCC3)CC2)c([N+](=O)[O-])c1 [compound 16]	–

Enzyme activity pIC50 [2]	IC50 [3] [nM]	SMILES	further results
>5	–	O=C(NO)c1ccc(N2CCN(c3ccc(Cl)c(Cl)c3)CC2)c([N+](=O)[O-])c1 [compound 17]	–
>5	–	O=C(NO)c1ccc(N2CCN(c3ccccn3)CC2)c([N+](=O)[O-])c1 [compound 18]	–
>5	–	O=C(NO)c1ccc(N2CCN(c3cccc(C(F)(F)F)c3)CC2)c([N+](=O)[O-])c1 [compound 19]	–
<5	–	O=C(NO)c1ccc(N2CCN(c3ccc(Cl)cc3)CC2)c([N+](=O)[O-])c1 [compound 20]	–
5	–	O=C(NO)c1ccc(N2CCN(c3ncccn3)CC2)c([N+](=O)[O-])c1 [compound 21]	–
>5	–	O=C(NO)c1ccc(N2CCN(Cc3ccc4c(c3)OCO4)CC2)c([N+](=O)[O-])c1 [compound 22]	–
>5	–	O=C(NO)c1ccc(N2CCN(c3ccccc3F)CC2)c([N+](=O)[O-])c1 [compound 23]	–
<5	–	O=C(NO)c1ccc(N2CCN(Cc3ccccc3)CC2)c([N+](=O)[O-])c1 [compound 24]	–
5	–	O=C(NO)c1ccc(N2CCN(c3ccc(C(F)(F)F)cn3)CC2)c([N+](=O)[O-])c1 [compound 25]	–
>5	–	O=C(NO)c1ccc(N2CCN(c3ccc(C(F)(F)F)cc3)CC2)c([N+](=O)[O-])c1 [compound 26]	–
<5	–	O=C(NO)c1ccc(N2CCC(Cc3ccccc3)CC2)c([N+](=O)[O-])c1 [compound 27]	–
>5	–	O=C(NO)c1ccc(N2CCC(n3c(=O)[nH]c4ccccc43)CC2)c([N+](=O)[O-])c1 [compound 28]	–
<5	–	O=C(NO)c1cccc(CN2CCN(c3cccc4ccccc34)CC2)c1 [compound 49]	solubility [4]: 75.8 to 454 µM (≈ 27.4 to 164 µg/mL)
5.206	–	O=C(NO)c1ccc(CN2CCN(c3cccc4ccccc34)CC2)cc1 [compound 50]	solubility [4]: 75.8 to 454 µM (≈ 27.4 to 164 µg/mL)
7.561	1180	Cc1nc2ccccc2c(=O)n1CC1CCN(c2ncc(C(=O)NO)cn2)CC1 [compound 51]	–
7.235	1170	Cc1ccc2nc(-c3cc4ccccc4o3)n(CC3CCN(c4ncc(C(=O)NO)cn4)CC3)c(=O)c2c1 [compound 52]	–
7.295	–	O=C(NO)c1cnc(N2CCC(Cn3c(-c4cccnc4Oc4ccccc4)nc4cccc(F)c4c3=O)CC2)nc1 [compound 53]	–
6.176	–	O=C(NO)c1cnc(N2CCC(Cn3c(C(c4ccccc4)C4CCCC4)nc4cccc(F)c4c3=O)CC2)nc1 (stereo not drawn) [compound 54]	–
–	–	CCCO [propanol]	% metabolism ([1]; 15 min incubation with active microsomes, compound 5 μM): 25%
